Results from patent US20260356819A1, “OXOISOINDOLINYL-SUBSTITUTED […] DERIVATIVE AND USE THEREOF” (GLUETACS THERAPEUTICS (SHANGHAI) CO., LTD., priority 2023, published 2026).

Experiments:
Format in all cases: cell-based
Settings in all cases: compounds at 50 nM and 500 nM
CK1α = biological target: T1, CK1α (Homo sapiens, UniProt P48729+Q96SW2); experiment: Western blot degradation of CK1α in hPBMCs (24 h)
T1 construct: The supernatant was aspirated as the extracted total cell protein; endogenous in cells; host or cells: human peripheral blood mononuclear cells (hPBMCs)
T1 sequence (P48729 whole entry): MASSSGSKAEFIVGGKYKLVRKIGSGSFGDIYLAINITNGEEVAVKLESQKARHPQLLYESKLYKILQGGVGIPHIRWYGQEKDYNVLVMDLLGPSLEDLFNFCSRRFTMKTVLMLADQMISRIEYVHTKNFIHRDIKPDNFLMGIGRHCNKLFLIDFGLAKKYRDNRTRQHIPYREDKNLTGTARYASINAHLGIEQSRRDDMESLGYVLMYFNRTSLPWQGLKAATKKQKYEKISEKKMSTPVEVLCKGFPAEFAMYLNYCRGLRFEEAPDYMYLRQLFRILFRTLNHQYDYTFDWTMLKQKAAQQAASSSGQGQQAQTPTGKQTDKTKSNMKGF
T1 sequence (Q96SW2 whole entry): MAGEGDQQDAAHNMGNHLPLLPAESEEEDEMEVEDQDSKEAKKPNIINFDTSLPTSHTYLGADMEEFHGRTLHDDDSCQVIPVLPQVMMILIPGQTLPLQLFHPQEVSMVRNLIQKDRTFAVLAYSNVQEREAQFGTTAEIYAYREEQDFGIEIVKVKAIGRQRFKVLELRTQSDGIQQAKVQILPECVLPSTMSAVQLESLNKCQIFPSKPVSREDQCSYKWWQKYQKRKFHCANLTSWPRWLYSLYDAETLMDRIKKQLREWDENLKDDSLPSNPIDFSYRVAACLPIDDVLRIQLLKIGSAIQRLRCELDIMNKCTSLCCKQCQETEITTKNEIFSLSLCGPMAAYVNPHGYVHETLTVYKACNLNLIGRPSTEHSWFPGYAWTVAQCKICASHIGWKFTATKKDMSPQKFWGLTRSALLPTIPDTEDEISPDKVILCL
T1 sequence (Q16531 whole entry partner): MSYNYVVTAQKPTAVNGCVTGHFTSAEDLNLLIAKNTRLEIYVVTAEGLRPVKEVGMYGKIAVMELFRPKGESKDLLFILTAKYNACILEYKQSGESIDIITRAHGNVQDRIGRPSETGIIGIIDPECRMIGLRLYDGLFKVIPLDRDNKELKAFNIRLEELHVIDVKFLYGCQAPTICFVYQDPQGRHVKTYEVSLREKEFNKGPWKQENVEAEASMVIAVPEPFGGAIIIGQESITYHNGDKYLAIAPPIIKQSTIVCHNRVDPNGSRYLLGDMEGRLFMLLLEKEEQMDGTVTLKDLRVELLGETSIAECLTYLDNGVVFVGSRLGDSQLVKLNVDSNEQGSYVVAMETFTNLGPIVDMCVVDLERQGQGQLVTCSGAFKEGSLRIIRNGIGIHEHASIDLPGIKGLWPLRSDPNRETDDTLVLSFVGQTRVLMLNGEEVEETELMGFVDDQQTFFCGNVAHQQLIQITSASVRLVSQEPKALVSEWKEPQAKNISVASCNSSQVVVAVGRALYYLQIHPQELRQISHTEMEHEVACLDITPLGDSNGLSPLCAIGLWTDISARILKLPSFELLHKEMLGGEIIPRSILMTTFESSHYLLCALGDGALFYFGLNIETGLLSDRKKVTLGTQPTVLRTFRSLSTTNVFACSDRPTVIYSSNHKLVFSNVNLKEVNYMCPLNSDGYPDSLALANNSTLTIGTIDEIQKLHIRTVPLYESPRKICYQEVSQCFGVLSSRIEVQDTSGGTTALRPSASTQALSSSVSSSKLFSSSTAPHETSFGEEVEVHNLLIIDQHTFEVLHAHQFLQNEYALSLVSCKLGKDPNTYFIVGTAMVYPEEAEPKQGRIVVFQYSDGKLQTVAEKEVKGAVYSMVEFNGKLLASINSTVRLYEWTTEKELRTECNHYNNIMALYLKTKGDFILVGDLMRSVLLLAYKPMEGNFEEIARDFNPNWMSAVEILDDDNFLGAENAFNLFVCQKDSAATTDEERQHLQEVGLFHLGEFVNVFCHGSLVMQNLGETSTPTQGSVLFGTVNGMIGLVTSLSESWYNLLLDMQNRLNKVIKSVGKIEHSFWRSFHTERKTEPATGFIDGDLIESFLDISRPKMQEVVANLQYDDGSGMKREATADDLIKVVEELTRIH
In short: (§1)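 Degradation in primary human PBMCs after 24 h compound exposure at 50 and 500 nM. Western blot band intensities, normalised to an internal control protein, expressed as % protein remaining relative to DMSO.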

GSPT1 = biological target: T2, GSPT1 (Homo sapiens, UniProt P15170+Q96SW2); experiment: Western blot degradation of GSPT1 in hPBMCs (24 h)
T2 construct: The supernatant was aspirated as the extracted total cell protein; endogenous in cells; host or cells: human peripheral blood mononuclear cells (hPBMCs)
T2 sequence (P15170 whole entry): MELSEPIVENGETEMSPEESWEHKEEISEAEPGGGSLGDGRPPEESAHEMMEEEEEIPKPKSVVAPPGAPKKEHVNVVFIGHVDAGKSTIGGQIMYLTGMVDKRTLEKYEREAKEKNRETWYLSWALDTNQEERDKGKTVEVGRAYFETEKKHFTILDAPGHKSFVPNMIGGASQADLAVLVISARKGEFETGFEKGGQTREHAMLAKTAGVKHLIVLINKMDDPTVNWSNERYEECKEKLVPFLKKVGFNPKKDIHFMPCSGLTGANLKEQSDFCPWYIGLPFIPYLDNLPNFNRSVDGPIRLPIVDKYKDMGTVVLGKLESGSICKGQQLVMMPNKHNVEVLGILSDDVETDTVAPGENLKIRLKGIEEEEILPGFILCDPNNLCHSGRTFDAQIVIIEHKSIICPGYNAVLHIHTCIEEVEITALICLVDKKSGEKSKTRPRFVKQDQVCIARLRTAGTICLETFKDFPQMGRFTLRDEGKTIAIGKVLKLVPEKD
T2 sequence (Q96SW2 whole entry): as the sequence (Q96SW2 whole entry) above
T2 sequence (Q16531 whole entry partner): as the sequence (Q16531 whole entry partner) above
In short: as §1

IKZF3 = biological target: T3, IKZF3 (Homo sapiens, UniProt Q96SW2+Q9UKT9); experiment: Western blot degradation of IKZF3 in hPBMCs (24 h)
T3 construct: The supernatant was aspirated as the extracted total cell protein; endogenous in cells; host or cells: human peripheral blood mononuclear cells (hPBMCs)
T3 sequence (Q9UKT9 whole entry): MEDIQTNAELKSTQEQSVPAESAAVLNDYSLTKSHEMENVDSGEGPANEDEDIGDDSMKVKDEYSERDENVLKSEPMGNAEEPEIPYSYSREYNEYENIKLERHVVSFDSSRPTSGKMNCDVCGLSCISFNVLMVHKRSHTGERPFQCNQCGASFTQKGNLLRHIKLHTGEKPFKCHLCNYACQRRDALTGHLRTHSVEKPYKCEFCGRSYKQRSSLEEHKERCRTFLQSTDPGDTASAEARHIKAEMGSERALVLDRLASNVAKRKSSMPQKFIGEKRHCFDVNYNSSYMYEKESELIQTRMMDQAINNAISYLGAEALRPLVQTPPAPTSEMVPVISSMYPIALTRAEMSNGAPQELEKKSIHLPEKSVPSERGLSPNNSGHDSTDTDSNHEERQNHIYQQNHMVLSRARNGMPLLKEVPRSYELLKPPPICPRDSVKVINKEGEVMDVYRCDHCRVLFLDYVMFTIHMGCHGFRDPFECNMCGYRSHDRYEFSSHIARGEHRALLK
T3 sequence (Q96SW2 whole entry): as the sequence (Q96SW2 whole entry) above
T3 sequence (Q16531 whole entry partner): as the sequence (Q16531 whole entry partner) above
In short: as §1

IKZF2 = biological target: T4, IKZF2 (Homo sapiens, UniProt Q96SW2+Q9UKS7); experiment: Western blot degradation of IKZF2 in hPBMCs (24 h)
T4 construct: The supernatant was aspirated as the extracted total cell protein; endogenous in cells; host or cells: human peripheral blood mononuclear cells (hPBMCs)
T4 sequence (Q9UKS7 whole entry): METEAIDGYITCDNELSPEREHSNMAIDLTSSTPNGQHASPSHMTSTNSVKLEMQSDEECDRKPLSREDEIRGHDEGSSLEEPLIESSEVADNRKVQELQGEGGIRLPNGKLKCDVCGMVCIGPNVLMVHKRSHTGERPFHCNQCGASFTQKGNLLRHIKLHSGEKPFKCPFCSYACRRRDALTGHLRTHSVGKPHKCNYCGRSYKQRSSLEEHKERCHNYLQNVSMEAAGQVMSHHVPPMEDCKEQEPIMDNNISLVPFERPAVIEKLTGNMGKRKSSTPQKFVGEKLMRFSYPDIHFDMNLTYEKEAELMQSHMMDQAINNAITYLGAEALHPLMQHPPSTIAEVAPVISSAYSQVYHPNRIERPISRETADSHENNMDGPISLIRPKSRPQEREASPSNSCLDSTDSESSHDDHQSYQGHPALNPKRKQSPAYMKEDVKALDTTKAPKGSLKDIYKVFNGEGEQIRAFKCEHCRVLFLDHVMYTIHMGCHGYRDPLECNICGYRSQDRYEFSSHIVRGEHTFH
T4 sequence (Q96SW2 whole entry): as the sequence (Q96SW2 whole entry) above
T4 sequence (Q16531 whole entry partner): as the sequence (Q16531 whole entry partner) above
In short: as §1

WEE1 = biological target: T5, WEE1 (Homo sapiens, UniProt P30291+Q96SW2); experiment: Western blot degradation of WEE1 in hPBMCs (24 h)
T5 construct: The supernatant was aspirated as the extracted total cell protein; endogenous in cells; host or cells: human peripheral blood mononuclear cells (hPBMCs)
T5 sequence (P30291 whole entry): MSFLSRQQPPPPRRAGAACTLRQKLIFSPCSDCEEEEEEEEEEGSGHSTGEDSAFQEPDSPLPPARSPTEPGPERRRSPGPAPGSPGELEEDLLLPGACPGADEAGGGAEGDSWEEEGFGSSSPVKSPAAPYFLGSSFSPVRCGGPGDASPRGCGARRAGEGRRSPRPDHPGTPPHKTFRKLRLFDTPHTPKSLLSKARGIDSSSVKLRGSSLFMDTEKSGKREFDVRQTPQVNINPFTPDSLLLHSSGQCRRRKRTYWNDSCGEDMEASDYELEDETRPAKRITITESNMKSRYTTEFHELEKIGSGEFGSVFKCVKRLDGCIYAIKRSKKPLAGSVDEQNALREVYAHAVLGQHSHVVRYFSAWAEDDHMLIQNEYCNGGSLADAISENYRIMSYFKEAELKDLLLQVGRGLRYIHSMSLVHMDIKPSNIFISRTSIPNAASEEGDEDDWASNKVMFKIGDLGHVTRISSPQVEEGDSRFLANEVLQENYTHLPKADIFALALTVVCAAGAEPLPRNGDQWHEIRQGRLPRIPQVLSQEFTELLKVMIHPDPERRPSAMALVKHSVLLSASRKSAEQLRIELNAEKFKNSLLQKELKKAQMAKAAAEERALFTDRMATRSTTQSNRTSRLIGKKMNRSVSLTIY
T5 sequence (Q96SW2 whole entry): as the sequence (Q96SW2 whole entry) above
T5 sequence (Q16531 whole entry partner): as the sequence (Q16531 whole entry partner) above
In short: as §1

IKZF1 = biological target: T6, IKZF1 (Homo sapiens, UniProt Q13422+Q96SW2); experiment: Western blot degradation of IKZF1 in hPBMCs (24 h)
T6 construct: The supernatant was aspirated as the extracted total cell protein; endogenous in cells; host or cells: human peripheral blood mononuclear cells (hPBMCs)
In short: as §1

| Structure (SMILES) | CK1α substrate protein remaining % (CK1α) | GSPT1 substrate protein remaining % (GSPT1) | IKZF3 substrate protein remaining % (IKZF3) | IKZF2 substrate protein remaining % (IKZF2) | WEE1 substrate protein remaining % (WEE1) | IKZF1 substrate protein remaining % (IKZF1) |
| --- | --- | --- | --- | --- | --- | --- |
| O=C1CCN(N2C(=O)c3ccc(CN4CCC(c5ccco5)CC4)cc3C2=O)C(=O)N1 [GT-05315, 2-(2,4-dioxotetrahydropyrimidin-1(2H)-yl)-5-((4-(furan-2-yl)piperidin-1-yl)methyl)isoindoline-1,3-dione] | B (80%< substrate protein remaining % ≤100%) | A (0% ≤ substrate protein remaining % ≤80%) | B (80%< substrate protein remaining % ≤100%) | B (80%< substrate protein remaining % ≤100%) | B (80%< substrate protein remaining % ≤100%) | B (80%< substrate protein remaining % ≤100%) |
| Cc1cscc1C1=CCN(Cc2ccc3c(c2)C(=O)N(N2CCC(=O)NC2=O)C3=O)CC1 [GT-05316, 2-(2,4-dioxotetrahydropyrimidin-1(2H)-yl)-5-((4-(4-methylthiophen-3-yl)-3,6-dihydropyridin-1(2H)-yl)methyl)isoindoline-1,3-dione] | B (80%< substrate protein remaining % ≤100%) | A (0% ≤ substrate protein remaining % ≤80%) | B (80%< substrate protein remaining % ≤100%) | B (80%< substrate protein remaining % ≤100%) | B (80%< substrate protein remaining % ≤100%) | B (80%< substrate protein remaining % ≤100%) |
| O=C1CCN(N2C(=O)c3ccc(CN4CC=C(c5ccco5)CC4)cc3C2=O)C(=O)N1 [GT-05317, 2-(2,4-dioxotetrahydropyrimidin-1(2H)-yl)-5-((4-(furan-2-yl)-3,6-dihydropyridin-1(2H)-yl)methyl)isoindoline-1,3-dione] | B (80%< substrate protein remaining % ≤100%) | A (0% ≤ substrate protein remaining % ≤80%) | B (80%< substrate protein remaining % ≤100%) | B (80%< substrate protein remaining % ≤100%) | B (80%< substrate protein remaining % ≤100%) | B (80%< substrate protein remaining % ≤100%) |
| O=C1CCN(N2C(=O)c3ccc(CN4CCN(c5ccc(Cl)cn5)CC4)cc3C2=O)C(=O)N1 [GT-05350, 5-((4-(5-chloropyridin-2-yl)piperazin-1-yl)methyl)-2-(2,4-dioxotetrahydropyrimidin-1(2H)-yl)isoindoline-1,3-dione] | B (80%< substrate protein remaining % ≤100%) | A (0% ≤ substrate protein remaining % ≤80%) | B (80%< substrate protein remaining % ≤100%) | B (80%< substrate protein remaining % ≤100%) | B (80%< substrate protein remaining % ≤100%) | B (80%< substrate protein remaining % ≤100%) |
| Cc1cccc(N2CCN(Cc3ccc4c(c3)C(=O)N(N3CCC(=O)NC3=O)C4=O)CC2)n1 [GT-05352, 2-(2,4-dioxotetrahydropyrimidin-1(2H)-yl)-5-((4-(6-methylpyridin-2-yl)piperazin-1-yl)methyl)isoindoline-1,3-dione] | B (80%< substrate protein remaining % ≤100%) | A (0% ≤ substrate protein remaining % ≤80%) | B (80%< substrate protein remaining % ≤100%) | A (0% ≤ substrate protein remaining % ≤80%) | B (80%< substrate protein remaining % ≤100%) | B (80%< substrate protein remaining % ≤100%) |
| O=C1CCN(N2Cc3cc(CN4CCN(c5nccc(Cl)c5F)CC4)ccc3C2=O)C(=O)N1 [GT-05358, 1-(5-((4-(4-chloro-3-fluoropyridin-2-yl)piperazin-1-yl)methyl)-1-oxoisoindolin-2-yl)dihydropyrimidine-2,4(1H,3H)-dione] | B (80%< substrate protein remaining % ≤100%) | A (0% ≤ substrate protein remaining % ≤80%) | B (80%< substrate protein remaining % ≤100%) | B (80%< substrate protein remaining % ≤100%) | B (80%< substrate protein remaining % ≤100%) | B (80%< substrate protein remaining % ≤100%) |
| O=C1CCN(N2Cc3cc(CN4CCN(c5ccc(Cl)nc5)CC4)ccc3C2=O)C(=O)N1 [GT-05435, 1-(5-((4-(6-chloropyridin-3-yl)piperazin-1-yl)methyl)-1-oxoisoindolin-2-yl)dihydropyrimidine-2,4(1H,3H)-dione] | B (80%< substrate protein remaining % ≤100%) | A (0% ≤ substrate protein remaining % ≤80%) | B (80%< substrate protein remaining % ≤100%) | B (80%< substrate protein remaining % ≤100%) | A (0% ≤ substrate protein remaining % ≤80%) | B (80%< substrate protein remaining % ≤100%) |
| O=C1CCN(N2Cc3cc(CN4CCN(c5cncc(Cl)c5Cl)CC4)ccc3C2=O)C(=O)N1 [GT-05436, 1-(5-((4-(4,5-dichloropyridin-3-yl)piperazin-1-yl)methyl)-1-oxoisoindolin-2-yl)dihydropyrimidine-2,4(1H,3H)-dione] | B (80%< substrate protein remaining % ≤100%) | A (0% ≤ substrate protein remaining % ≤80%) | B (80%< substrate protein remaining % ≤100%) | B (80%< substrate protein remaining % ≤100%) | A (0% ≤ substrate protein remaining % ≤80%) | B (80%< substrate protein remaining % ≤100%) |
| O=C1CCN(N2Cc3cc(CN4CCN(c5ccncc5)CC4)ccc3C2=O)C(=O)N1 [GT-05437, 1-(1-oxo-5-((4-(pyridin-4-yl)piperazin-1-yl)methyl)isoindolin-2-yl)dihydropyrimidine-2,4(1H,3H)-dione] | B (80%< substrate protein remaining % ≤100%) | A (0% ≤ substrate protein remaining % ≤80%) | B (80%< substrate protein remaining % ≤100%) | B (80%< substrate protein remaining % ≤100%) | B (80%< substrate protein remaining % ≤100%) | B (80%< substrate protein remaining % ≤100%) |
| Cc1cc(N2CCN(Cc3ccc4c(c3)CN(N3CCC(=O)NC3=O)C4=O)CC2)ccn1 [GT-05438, 1-(5-((4-(2-methylpyridin-4-yl)piperazin-1-yl)methyl)-1-oxoisoindolin-2-yl)dihydropyrimidine-2,4(1H,3H)-dione] | A (0% ≤ substrate protein remaining % ≤80%) | A (0% ≤ substrate protein remaining % ≤80%) | A (0% ≤ substrate protein remaining % ≤80%) | B (80%< substrate protein remaining % ≤100%) | A (0% ≤ substrate protein remaining % ≤80%) | A (0% ≤ substrate protein remaining % ≤80%) |
| O=C1CCN(N2Cc3cc(CN4CCN(c5ccncc5F)CC4)ccc3C2=O)C(=O)N1 [GT-05697, 1-(5-((4-(3-fluoropyridin-4-yl)piperazin-1-yl)methyl)-1-oxoisoindolin-2-yl)dihydropyrimidine-2,4(1H,3H)-dione] | B (80%< substrate protein remaining % ≤100%) | A (0% ≤ substrate protein remaining % ≤80%) | B (80%< substrate protein remaining % ≤100%) | B (80%< substrate protein remaining % ≤100%) | A (0% ≤ substrate protein remaining % ≤80%) | B (80%< substrate protein remaining % ≤100%) |
| O=C1CCN(N2Cc3cc(CN4CCN(C(c5ccccc5)c5cccnc5)CC4)ccc3C2=O)C(=O)N1 (stereo not drawn) [GT-06376, 1-(1-oxo-5-((4-(phenyl(pyridin-3-yl)methyl)piperazin-1-yl)methyl)isoindolin-2-yl)dihydropyrimidine-2,4(1H,3H)-dione] | B (80%< substrate protein remaining % ≤100%) | A (0% ≤ substrate protein remaining % ≤80%) | B (80%< substrate protein remaining % ≤100%) | A (0% ≤ substrate protein remaining % ≤80%) | A (0% ≤ substrate protein remaining % ≤80%) | B (80%< substrate protein remaining % ≤100%) |
| O=C1CCN(N2C(=O)c3ccc(CN4CCN(C(c5ccccc5)c5cccnc5)CC4)cc3C2=O)C(=O)N1 (stereo not drawn) [GT-06377, 2-(2,4-dioxotetrahydropyrimidin-1(2H)-yl)-5-((4-(phenyl(pyridin-3-yl)methyl)piperazin-1-yl)methyl)isoindoline-1,3-dione] | B (80%< substrate protein remaining % ≤100%) | B (80%< substrate protein remaining % ≤100%) | B (80%< substrate protein remaining % ≤100%) | A (0% ≤ substrate protein remaining % ≤80%) | A (0% ≤ substrate protein remaining % ≤80%) | B (80%< substrate protein remaining % ≤100%) |
